Measurements from ChEMBL document CHEMBL1795248, “N,N'-Dialkylaminoalkylcarbonyl (DAAC) prodrugs and aminoalkylcarbonyl (AAC) prodrugs of 4-hydroxyacetanilide and naltrexone with improved skin permeation properties” (Bioorg Med Chem Lett, 2011).

Assay: Chemical stability of the compound assessed as half life in phosphate buffer at pH 6.0
Format: physicochemical
Compound CCN(CC)CCC(=O)Oc1ccc(NC(C)=O)cc1.Cl has a half-life of 1.32 h.
With CC(=O)Nc1ccc(OC(=O)CCN(C)C)cc1.Cl the half-life was 1.88 h.
With CC(=O)Nc1ccc(OC(=O)CN(C)C)cc1.Cl the half-life was 1.28 h.
Compound CC(=O)Nc1ccc(OC(=O)[C@@H](N)C(C)C)cc1.Cl [ACETAMINOPHEN VALINATE HYDROCHLORIDE] has a half-life of 1.52 h.
CCN(CC)CC(=O)Oc1ccc(NC(C)=O)cc1.Cl showed a half-life of 1.76 h.
CC(C)[C@H](N)C(=O)Oc1ccc2c3c1O[C@H]1C(=O)CC[C@@]4(O)[C@@H](C2)N(CC2CC2)CC[C@]314.O=C(O)C(F)(F)F showed a half-life of 0.53 h.
CC(=O)Nc1ccc(OC(=O)[C@@H]2CCCN2)cc1.Cl [ACETAMINOPHEN PROLINATE HYDROCHLORIDE] gave a half-life of 0.248 h.
CC(=O)Nc1ccc(OC(=O)CCN2CCCCC2)cc1.Cl gave a half-life of 1.33 h.
CC(=O)Nc1ccc(OC(=O)[C@H](C)N)cc1.Cl [ACETAMINOPHEN ALANINATE HYDROCHLORIDE] gave a half-life of 0.539 h.
